In ChEMBL document CHEMBL4229418, “Design, synthesis and pharmacology of aortic-selective acyl-CoA: Cholesterol O-acyltransferase (ACAT/SOAT) inhibitors” (Bioorg Med Chem, 2018):

Columns and labels:
[1] = system: Hamster; assay: Antiatherosclerotic activity in Bio F1B hamster model of diet-induced atherosclerosis assessed as plasma cholesterol ester level at 10 mg/kg/day added to chow pellets (reference value: 1379.3 mg/dl); assay type: functional, Cricetinae
[2] = system: Hamster; assay: Toxicity in Bio F1B hamster model of diet-induced atherosclerosis assessed as adrenal free cholesterol level at 1 mg/kg/day added to chow pellets (reference value: 4.65 mg/dl); assay type: organism-based; details: cricetinae, in vivo
[3] = system: Hamster; assay: Antiatherosclerotic activity in Bio F1B hamster model of diet-induced atherosclerosis assessed as plasma free cholesterol level at 1 mg/kg/day added to chow pellets (reference value: 780.8 mg/dl); assay type: functional, Cricetinae
[4] = system: Hamster; assay: Antiatherosclerotic activity in Bio F1B hamster model of diet-induced atherosclerosis assessed as intestinal cholesterol ester level at 1 mg/kg/day added to chow pellets (reference value: 1.09 mg/dl); assay type: functional, Cricetinae
[5] = system: Hamster; assay: Antiatherosclerotic activity in Bio F1B hamster model of diet-induced atherosclerosis assessed as liver free cholesterol level at 1 mg/kg/day added to chow pellets (reference value: 7.94 mg/dl); assay type: functional, Cricetinae
[6] = system: Hamster; assay: Toxicity in Bio F1B hamster model of diet-induced atherosclerosis assessed as plasma total cholesterol level at 30 mg/kg/day added to chow pellets (reference value: 2160.1 mg/dl); assay type: organism-based; details: cricetinae, in vivo
[7] = system: Hamster; assay: Antiatherosclerotic activity in Bio F1B hamster model of diet-induced atherosclerosis assessed as intestinal free cholesterol level at 1 mg/kg/day added to chow pellets (reference value: 3.41 mg/dl); assay type: functional, Cricetinae
[8] = system: Hamster; assay: Toxicity in Bio F1B hamster model of diet-induced atherosclerosis assessed as plasma total cholesterol level at 3 mg/kg/day added to chow pellets (reference value: 2160.1 mg/dl); assay type: organism-based; details: cricetinae, in vivo
[9] = Cmax in non-fasted Sprague-Dawley rat at 30 mg/kg, po by LC-MS/MS analysis; assay type: ADME, organism-based; set-up: dose 30 mg/kg, route oral; details: in vivo
[10] = system: Hamster; assay: Antiatherosclerotic activity in Bio F1B hamster model of diet-induced atherosclerosis assessed as liver cholesterol ester level at 1 mg/kg/day added to chow pellets (reference value: 24.04 mg/dl); assay type: functional, Cricetinae
[11] = system: Hamster; assay: Antiatherosclerotic activity in Bio F1B hamster model of diet-induced atherosclerosis assessed as reduction in lipid accumulation areas in aortic arch at 3 mg/kg/day added to chow pellets by oil red O staining based assay relative to control; assay type: functional; details: Cricetinae
[12] = system: Hamster; assay: Antiatherosclerotic activity in Bio F1B hamster model of diet-induced atherosclerosis assessed as liver free cholesterol level at 3 mg/kg/day added to chow pellets (reference value: 7.94 mg/dl); assay type: functional, Cricetinae
[13] = system: Hamster; assay: Antiatherosclerotic activity in Bio F1B hamster model of diet-induced atherosclerosis assessed as reduction in lipid accumulation areas in aortic arch at 30 mg/kg/day added to chow pellets by oil red O staining based assay relative to control; assay type: functional; details: Cricetinae
[14] = system: Hamster; assay: Antiatherosclerotic activity in Bio F1B hamster model of diet-induced atherosclerosis assessed as intestinal cholesterol ester level at 3 mg/kg/day added to chow pellets (reference value: 1.09 mg/dl); assay type: functional, Cricetinae
[15] = system: Hamster; assay: Antiatherosclerotic activity in Bio F1B hamster model of diet-induced atherosclerosis assessed as adrenal cholesterol ester level at 10 mg/kg/day added to chow pellets (reference value: 5.88 mg/dl); assay type: functional, Cricetinae
[16] = system: Hamster; assay: Antiatherosclerotic activity in Bio F1B hamster model of diet-induced atherosclerosis assessed as plasma cholesterol ester level at 1 mg/kg/day added to chow pellets (reference value: 1379.3 mg/dl); assay type: functional, Cricetinae
[17] = system: Hamster; assay: Antiatherosclerotic activity in Bio F1B hamster model of diet-induced atherosclerosis assessed as plasma free cholesterol level at 3 mg/kg/day added to chow pellets (reference value: 780.8 mg/dl); assay type: functional, Cricetinae
[18] = AUC (0 to 8 hrs) in non-fasted Beagle dog at 30 mg/kg, po by LC-MS/MS analysis; assay type: ADME, organism-based, Canis lupus familiaris; set-up: time < 8 hr, dose 30 mg/kg, route oral; details: in vivo
[19] = system: Hamster; assay: Effect on lipid composition in Bio F1B hamster model of diet-induced atherosclerosis assessed as liver total cholesterol level at 1 mg/kg/day added to chow pellets (reference value: 31.99 mg/dl); assay type: functional, Cricetinae
[20] = Tmax in non-fasted Sprague-Dawley rat at 30 mg/kg, po by LC-MS/MS analysis; assay type: ADME, organism-based; details: in vivo
[21] = system: Hamster; assay: Antiatherosclerotic activity in Bio F1B hamster model of diet-induced atherosclerosis assessed as liver cholesterol ester level at 10 mg/kg/day added to chow pellets (reference value: 24.04 mg/dl); assay type: functional, Cricetinae
[22] = system: Hamster; assay: Toxicity in Bio F1B hamster model of diet-induced atherosclerosis assessed as plasma total cholesterol level at 10 mg/kg/day added to chow pellets (reference value: 2160.1 mg/dl); assay type: organism-based; details: cricetinae, in vivo
[23] = system: Hamster; assay: Antiatherosclerotic activity in Bio F1B hamster model of diet-induced atherosclerosis assessed as plasma cholesterol ester level at 30 mg/kg/day added to chow pellets (reference value: 1379.3 mg/dl); assay type: functional, Cricetinae
[24] = system: Hamster; assay: Antiatherosclerotic activity in Bio F1B hamster model of diet-induced atherosclerosis assessed as intestinal free cholesterol level at 3 mg/kg/day added to chow pellets (reference value: 3.41 mg/dl); assay type: functional, Cricetinae
[25] = system: Hamster; assay: Antiatherosclerotic activity in Bio F1B hamster model of diet-induced atherosclerosis assessed as liver free cholesterol level at 30 mg/kg/day added to chow pellets (reference value: 7.94 mg/dl); assay type: functional, Cricetinae
[26] = system: Hamster; assay: Toxicity in Bio F1B hamster model of diet-induced atherosclerosis assessed as adrenal free cholesterol level at 3 mg/kg/day added to chow pellets (reference value: 4.65 mg/dl); assay type: organism-based; details: cricetinae, in vivo
[27] = AUC (0 to 8 hrs) in non-fasted Sprague-Dawley rat at 30 mg/kg, po by LC-MS/MS analysis; assay type: ADME, organism-based; set-up: dose 30 mg/kg, time < 8 hr, route oral; details: in vivo
[28] = system: Hamster; assay: Antiatherosclerotic activity in Bio F1B hamster model of diet-induced atherosclerosis assessed as adrenal cholesterol ester level at 3 mg/kg/day added to chow pellets (reference value: 5.88 mg/dl); assay type: functional, Cricetinae

Structure (SMILES): CC(C)c1cccc(C(C)C)c1NC(=O)CCCCCCCCSc1nc2ccccc2o1
- Activity [1]: 799.7 mg/dL
- Activity [2]: 4.41 mg/dL
- Activity [3]: 828.2 mg/dL
- Activity [4]: 0.98 mg/dL
- Activity [5]: 7.94 mg/dL
- Activity [6]: 476.3 mg/dL
- Activity [7]: 3.43 mg/dL
- Activity [8]: 2241 mg/dL
- Cmax [9]: 107 ng/mL
- Activity [10]: 22.81 mg/dL
- inhibition in vivo at 3 mg/kg/day [11]: 69%
- Activity [12]: 5.95 mg/dL
- inhibition in vivo at 30 mg/kg/day [13]: 7%
- Activity [14]: 0.94 mg/dL
- Activity [15]: 3.5 mg/dL
- Activity [16]: 1512.6 mg/dL
- Activity [17]: 801.5 mg/dL
- AUC(0-t) at 8 h [18]: 2960 ng·h/mL
- Activity [19]: 30.75 mg/dL
- Tmax [20]: 3.2 h
- Activity [21]: 7.65 mg/dL
- Activity [22]: 1291.7 mg/dL
- Activity [23]: 259 mg/dL
- Activity [24]: 3.18 mg/dL
- Activity [25]: 2.43 mg/dL
- Activity [26]: 4.05 mg/dL
- AUC(0-t) at 8 h [27]: 358 ng·h/mL
- Activity [28]: 6.02 mg/dL
